The results in this text go back to patent US5254577A, “Aminomethyloxooxazolidinyl arylbenzene derivatives useful as antibacterial agents” (The Du Pont Merck Pharmaceutical Company, priority 1992, dated 1993).

Molecules are shown by their SMILES. Values after ≈ are worked out from the molar mass of the structure shown. Where two headings read alike, the source gives them in different places.

One assay has as its system Escherichia coli. In words: In vitro broth microdilution, 24-hour minimal inhibitory concentration (MIC). The class given is cell-based. Conditions: Mueller-Hinton broth; for MIC: read-out: Minimum Inhibitory Concentration. From the text:
(§1) A standard microdilution method (National Committee for Clinical Standards. Tentative standard M7-T. Standard methods for dilution antimicrobial susceptibility tests for bacteria that grow aerobically. National Committee for Clinical Laboratory Standards, Villanova, Pa. 1982) with Mueller-Hinton broth is used to determine the 24-hour minimal inhibitory concentrations (MIC's) for test strains of Staphylococcus aureus and Escherichia coli.
In general terms: In broth dilution the organism is exposed to a series of concentrations in liquid medium.

Assay [1] concerns Staphylococcus aureus. The description is as above. The class given is cell-based. To be noted: Mueller-Hinton broth; for MIC: read-out: Minimum Inhibitory Concentration.
Description: as §1

The subject of assay [2] is Staphylococcus aureus. In words: In vivo activity against Staphylococcus aureus in an acute lethal mouse model. Conditions: mice infected intraperitoneally, dosed 1 h and 4 h post-infection, survivors on seventh day. How it is done: The in vivo potency of these compounds is exemplified by the data summarized in Table X. Determinations of in vivo efficacy are performed by inoculating mice intraperitoneally with cultures of the infecting organism diluted to produce 100% mortality in control animals within twenty-four hours. The culture of S. aureus used to infect the animals was diluted to the required bacterial density using 5% aqueous hog gastric mucin. The compounds are dissolved or suspended in 0.25% aqueous Methocel® (Methocel®: Hydroxypropyl Methylcullulose, E15 Premium, Dow Chemical Company) for oral administration or sterile distilled water containing 5% dimethylsulfoxide (Fisher Scientific Company, Fairlawn, N.J.) for subcutaneous administration. The mice are dosed at one hour and at four hours post-infection. Mortality is recorded daily until test determination seven days post infection. The number of survivors in each treatment group on the seventh day after infection is used in the calculation of the ED50, the dose of compound that protects 50% of the mice (Litchfield,J. T. and Wildoxon. A simulated method for evaluating dose-effect experiments. J. Pharmacol Exp. Ther., 98:99-113, 1949).

Where [3] appears, read: Staphylococcus aureus, sc, 168 h, Subcutaneous Administration, read-out: ED50.
The mark [4] stands for this setting: Staphylococcus aureus, 168 h, Oral Administration, read-out: ED50.

What is called ED50 is the midpoint of the dose-response relation. As to `CC(=O)NC[C@H]1CN(c2ccc(-c3ccccn3)cc2)C(=O)O1` [Example 86], the MIC in the assay with Escherichia coli was above 128 µg/mL; with Staphylococcus aureus [1] it was 2 µg/mL (≈ 6.42 µM). Besides, the ED50 in the assay on Staphylococcus aureus [2] (setting [3]) worked out at 15.5 mg/kg.
On to `CC(=O)NC[C@H]1CN(c2ccc(-c3ccc(C(O)C(C)CN4CCN(C)CC4)cc3)cc2)C(=O)O1` (stereo partly drawn) [Example 64], for which the MIC is above 128 µg/mL in the assay on Escherichia coli and 4 µg/mL (≈ 8.32 µM) in the assay with Staphylococcus aureus [1]. Also, the ED50 in the assay on Staphylococcus aureus [2] (setting [4]) turned out to be 50 mg/kg; in the assay on Staphylococcus aureus [2] (setting [3]), 11 mg/kg.
For `CC(=O)NC[C@H]1CN(c2ccc(-c3cccc[n+]3[O-])cc2)C(=O)O1` [Example 87], the MIC was above 128 µg/mL with Escherichia coli and 32 µg/mL (≈ 97.8 µM) in the assay on Staphylococcus aureus [1]. In addition, the ED50 in the assay with Staphylococcus aureus [2] (setting [4]) was 16.1 mg/kg; in the assay with Staphylococcus aureus [2] (setting [3]), 9.8 mg/kg.
Regarding `CC(=O)NC[C@H]1CN(c2ccc(-c3ccno3)cc2)C(=O)O1` [Example 130, (l)-N-[3-[4-(5-Isoxazolyl)phenyl]-2-oxooxazolidin-5-ylmethyl]acetamide], the results for the MIC in the assay on Escherichia coli and in the assay with Staphylococcus aureus [1] were above 128 µg/mL and 1 µg/mL (≈ 3.32 µM), respectively. For the same molecule, the ED50 in the assay with Staphylococcus aureus [2] (setting [4]) and in the assay on Staphylococcus aureus [2] (setting [3]) was 6 mg/kg each time.
Regarding `CC(=O)NC[C@H]1CN(c2ccc(-c3cccc(N)c3)cc2)C(=O)O1` [Example 73], the MIC in the assay with Escherichia coli is above 128 µg/mL; in the assay on Staphylococcus aureus [1] it was 0.5 µg/mL (≈ 1.54 µM). Also, the ED50 in the assay with Staphylococcus aureus [2] (setting [4]) came out at 11.8 mg/kg; in the assay on Staphylococcus aureus [2] (setting [3]), 5 mg/kg.
As to `CC(=O)NCC1CN(c2ccc(-c3ccc([N+](C)(C)[O-])cc3)cc2)C(=O)O1` (stereo not drawn) [Example 116], the MIC in the assay on Escherichia coli is above 128 µg/mL; in the assay with Staphylococcus aureus [1], 16 µg/mL (≈ 43.3 µM). Moreover, the ED50 in the assay on Staphylococcus aureus [2] (setting [3]) came to 6.4 mg/kg.
As to `CC(=O)NC[C@H]1CN(c2ccc(-c3ccc(C(=O)CCN(C)C)cc3)cc2)C(=O)O1` [Example 57, (l)-N-[3-(4-(4'-(3-N,N-dimethylaminopropionyl)phenyl)phenyl)-2-oxooxazolidin-5-ylmethyl]acetamide], the MIC in the assay with Escherichia coli is above 128 µg/mL; with Staphylococcus aureus [1] it was 1 µg/mL (≈ 2.44 µM). Further, the ED50 was 18 mg/kg in the assay on Staphylococcus aureus [2] (setting [4]) and 10 mg/kg in the assay with Staphylococcus aureus [2] (setting [3]).
For `CCCCCCCCNCc1ccc(-c2ccc(N3C[C@H](CNC(C)=O)OC3=O)cc2)cc1` [Example 49], in that order: above 128 µg/mL, 1 µg/mL (≈ 2.21 µM), 65.2 mg/kg and above 90 mg/kg.
As for `CC(=O)NC[C@H]1CN(c2ccc(-c3cc(O)ccc3O)cc2)C(=O)O1` [Example 113, (l)-N-[3-(4-(2',5'-Dihydroxyphenyl)phenyl)-2-oxooxazolidin-5-ylmethyl]acetamide], the figures for the MIC with Escherichia coli and in the assay on Staphylococcus aureus [1] were above 128 µg/mL and 16 µg/mL (≈ 46.7 µM), respectively. The values for the ED50 in the assay with Staphylococcus aureus [2] (setting [4]) and in the assay with Staphylococcus aureus [2] (setting [3]) were above 90 mg/kg and 68.3 mg/kg, respectively.
For `CC(=O)NC[C@H]1CN(c2ccc(-c3csc(N)n3)cc2)C(=O)O1` [Example 134], in that order: above 128 µg/mL, 8 µg/mL (≈ 24.1 µM), 56.5 mg/kg and 47 mg/kg.
On the same counts, the results for `CC(=O)NC[C@H]1CN(c2ccc(-c3ccc(C(=O)CCN4CCN(C)CC4)cc3)cc2)C(=O)O1` [Example 60] are above 128 µg/mL, 1 µg/mL (≈ 2.15 µM), 30 mg/kg and 5.5 mg/kg.
Regarding `CC(=O)NC[C@H]1CN(c2ccc(-c3ccc(C(=O)CCl)cc3)cc2)C(=O)O1` [Example 8], the MIC in the assay on Escherichia coli is above 128 µg/mL; in the assay with Staphylococcus aureus [1], below 0.13 µg/mL. Moreover, the ED50 with Staphylococcus aureus [2] (setting [4]) and with Staphylococcus aureus [2] (setting [3]) was above 90 mg/kg throughout.
Take `CC(=O)NC[C@H]1CN(c2ccc(-c3ccc(C#N)cc3)cc2)C(=O)O1` [Example 37, (l)-N-[3-(4-(4'-Cyanophenyl)phenyl)-2-oxooxazolidin-5-ylmethyl]acetamide]: the results for the MIC with Escherichia coli and in the assay on Staphylococcus aureus [1] were above 128 µg/mL and 0.25 µg/mL (≈ 0.745 µM), respectively. Further, the ED50 with Staphylococcus aureus [2] (setting [4]) was below 1.2 mg/kg; in the assay with Staphylococcus aureus [2] (setting [3]) it was 0.6 mg/kg.
Consider `CC(=O)NC[C@H]1CN(c2ccc(-c3ccc(CN(CCO)CCO)cc3)cc2)C(=O)O1` [Example 50], for which the values for the MIC with Escherichia coli and with Staphylococcus aureus [1] were above 128 µg/mL and 0.5 µg/mL (≈ 1.17 µM), respectively. In addition, the ED50 in the assay on Staphylococcus aureus [2] (setting [3]) amounted to 6.5 mg/kg.
Regarding `CC(=O)NC[C@H]1CN(c2ccc(-c3ccc(C(C)OC(=O)CCC(=O)O)cc3)cc2)C(=O)O1` (stereo partly drawn) [Example 29], the MIC is above 128 µg/mL with Escherichia coli and 4 µg/mL (≈ 8.8 µM) in the assay with Staphylococcus aureus [1]. The ED50 in the assay with Staphylococcus aureus [2] (setting [4]) is 16.1 mg/kg; in the assay on Staphylococcus aureus [2] (setting [3]) it was 9.8 mg/kg.
Consider `CC(=O)NC[C@H]1CN(c2ccc(-c3ccccc3C)cc2)C(=O)O1` [Example 71], for which the MIC is above 128 µg/mL in the assay on Escherichia coli and 2 µg/mL (≈ 6.17 µM) with Staphylococcus aureus [1]. The ED50 is 51.9 mg/kg with Staphylococcus aureus [2] (setting [4]) and above 90 mg/kg with Staphylococcus aureus [2] (setting [3]).
As to `CCCN(CCC)Cc1ccc(-c2ccc(N3C[C@H](CNC(C)=O)OC3=O)cc2)cc1` [Example 44, (l)-N-[3-(4-(4'-di-n-propylaminomethylphenyl)phenyl)-2-oxooxazolidin-5-ylmethyl]acetamide], the MIC with Escherichia coli was above 128 µg/mL; with Staphylococcus aureus [1], 4 µg/mL (≈ 9.44 µM). The ED50 in the assay on Staphylococcus aureus [2] (setting [4]) turned out to be 8.6 mg/kg; in the assay with Staphylococcus aureus [2] (setting [3]), 3.7 mg/kg.
Take `CC(=O)NC[C@H]1CN(c2ccc(-c3ccc(C(C)=NOCC(=O)O)cc3)cc2)C(=O)O1` [Example 24, (l)-N-[3-(4-(4'-(1-Carboxymethoxyliminoethyl)phenyl)phenyl)-2-oxooxazolidin-5-ylmethyl]acetamide]: the MIC in the assay on Escherichia coli is above 128 µg/mL; with Staphylococcus aureus [1] it was 8 µg/mL (≈ 18.8 µM). Moreover, the ED50 in the assay on Staphylococcus aureus [2] (setting [4]) and in the assay on Staphylococcus aureus [2] (setting [3]) was above 90 mg/kg throughout.
As to `CC(=O)NC[C@H]1CN(c2ccc(-c3ccc(C(=O)CCC(=O)O)cc3)cc2)C(=O)O1` [Example 9], the figures for the MIC in the assay on Escherichia coli and in the assay with Staphylococcus aureus [1] were above 128 µg/mL and below 0.13 µg/mL, respectively. Moreover, the ED50 is above 90 mg/kg in the assay on Staphylococcus aureus [2] (setting [4]) and 16.8 mg/kg in the assay on Staphylococcus aureus [2] (setting [3]).
Consider `CC(=O)NC[C@H]1CN(c2ccc(-c3ccc(CO)cc3)cc2)C(=O)O1` [Example 28], for which the MIC in the assay on Escherichia coli is above 128 µg/mL; with Staphylococcus aureus [1], below 0.13 µg/mL. Moreover, the ED50 in the assay on Staphylococcus aureus [2] (setting [4]) is 52.6 mg/kg; with Staphylococcus aureus [2] (setting [3]), 30 mg/kg.
For the molecule `CC(=O)NC[C@H]1CN(c2ccc(-c3cccc([S+](C)[O-])c3)cc2)C(=O)O1` (single isomer, unassigned) [Example 65], the MIC with Escherichia coli was above 128 µg/mL; in the assay on Staphylococcus aureus [1] it was 2 µg/mL (≈ 5.37 µM). Further, the ED50 in the assay on Staphylococcus aureus [2] (setting [3]) was determined as 4.3 mg/kg.
As to `CC(=O)NC[C@H]1CN(c2ccc(-c3ccc(C(O)CCN4CCN(C)CC4)cc3)cc2)C(=O)O1` (stereo partly drawn) [Example 61], the values for the MIC with Escherichia coli and in the assay with Staphylococcus aureus [1] were above 128 µg/mL and 2 µg/mL (≈ 4.29 µM), respectively. In addition, the figures for the ED50 with Staphylococcus aureus [2] (setting [4]) and in the assay with Staphylococcus aureus [2] (setting [3]) were 47.4 mg/kg and 2.7 mg/kg, respectively.
As for `C=C(C)C(=O)c1ccc(-c2ccc(N3C[C@H](CNC(C)=O)OC3=O)cc2)cc1` [Example 63], the values for the MIC with Escherichia coli and in the assay with Staphylococcus aureus [1] were above 128 µg/mL and 0.25 µg/mL (≈ 0.661 µM), respectively. The ED50 in the assay on Staphylococcus aureus [2] (setting [4]) and in the assay on Staphylococcus aureus [2] (setting [3]) was above 90 mg/kg throughout.
Consider `CC(=O)NC[C@H]1CN(c2ccc(-c3ccnc(N)n3)cc2)C(=O)O1` [Example 135], for which the results for the MIC in the assay on Escherichia coli and in the assay with Staphylococcus aureus [1] were above 128 µg/mL and 4 µg/mL (≈ 12.2 µM), respectively. In addition, the ED50 in the assay on Staphylococcus aureus [2] (setting [4]) stood at 68 mg/kg.
Consider `CC(=O)NCC1CN(c2ccc(-c3ccc(S(C)(=O)=O)cc3)cc2)C(=O)O1` (stereo not drawn) [Example 69, (l)-N-[3-(4-(4'-Methylsulfonylphenyl)phenyl)-2-oxooxazolidin-5-ylmethyl]acetamide], for which the results for the “Minimum Inhibitory Concentration” value in the assay on Escherichia coli and with Staphylococcus aureus [1] were above 128 µg/mL and 0.25 µg/mL, respectively. The ED50 with Staphylococcus aureus [2] (Oral Administration, 10080 min) was determined as 4 mg/kg; with Staphylococcus aureus [2] (Subcutaneous Administration, 10080 min) it was 1.2 mg/kg.
As to `CC(=O)NC[C@H]1CN(c2ccc(-c3ccc[n+]([O-])c3)cc2)C(=O)O1` [Example 89], the MIC with Escherichia coli is above 128 µg/mL; in the assay with Staphylococcus aureus [1] it was 2 µg/mL (≈ 6.11 µM). Also, the ED50 in the assay on Staphylococcus aureus [2] (setting [4]) is 2 mg/kg; with Staphylococcus aureus [2] (setting [3]), below 3.3 mg/kg.
